Source: US9782522B2, “Compositions and methods for treating and preventing neointimal stenosis” (Yale University, priority 2011, dated 2017)

Legend:
HUAEC = experiment: qRT-PCR mRNA expression of TGFβ signaling and Endo-MT markers in endothelial cells; assay type: cell-based, human; conditions: FRS2 knockdown EC; 10 μM
Source text: Human 293T T17 cells (ATCC CRL-11268) were maintained in Dulbecco's modified Eagle's medium (Gibco) with 10% fetal bovine serum (Invitrogen) and penicillinstreptomycin (Gibco). Primary human mammary epithelial cells (HuMEC, Invitrogen), were maintained in HuMEC basal serum free medium with HuMEC supplement (Invitrogen 12754-016) and bovine pituitary extract (Invitrogen 13028-014). Human foreskin cells (ATCC CRL-1079Sk) were maintained in Minimum Essential Medium (ATCC) with 10% fetal bovine serum (Hyclone), β-mercaptoethanol (Sigma), and penicillin-streptomycin (Gibco). Primary human atrial cells (passage 3-5; gift from Y. Qyang, Yale University School of Medicine) were maintained in Dulbecco's modified Eagle's medium (Gibco) with 10% fetal bovine serum (Invitrogen), L-glutamine (Gibco), Sodium pyruvate (Gibco), Non-essential amino acid (Gibco), and penicillin-streptomycin (Gibco). HUAEC (human umbilical artery endothelial cells, passage 5-10, Lonza) were cultured in EBM-2 supplemented with EGM-2-MV bullet kit (Lonza). HUVEC (human umbilical vein endothelial cells, passage 3-7, Yale Vascular Biology and Therapeutics) were cultured in M199 with ECGS, supplemented with 20% FBS (Sigma), L-glutamine (Gibco), and penicillin-streptomycin (Gibco). Culture vessels were coated with 0.1% gelatin (Sigma) for 30 min at 37° C. immediately prior to cell seeding. Primary mouse endothelial cells were isolated from the heart using rat anti-mouse CD31 antibody and Dynabeads (Invitrogen) as previously described (Partovian C, et al. Mol Cell. 32(1):140 (2008)).
RNA was isolated using RNeasy® plus Mini Kit (Qiagen) and converted to cDNA using iScript™ cDNA synthesis kit (Bio-Rad). Quantitative real-time PCR (qRT-PCR) was performed using Bio-Rad […] (Bio-Rad) by mixing equal amount of eDNAs, iQ™ SYBR® Green Supermix (Bio-Rad) and gene specific primers. All reactions were done in a 25 μl reaction volume in duplicate. Data were normalized to endogenous β-actin. Values are expressed as fold change in comparison to control. Mouse TGFβ gene expression was quantified via qRT-PCR with TaqMan® Gene Expression Assays (Mm00441726_m1; Applied Biosystems) and HPRT (Mm00441258_1; Applied Biosystems) as endogenous control followed the manufacturer's recommendation. Quantitative PCR analysis of 84 TGFβ and epithelial to mesenchymal transition (EMT) related genes were performed using Human TGFβ BMP signaling pathway (PAHS-035D, QIAGEN) and Human Epithelial to Mesenchymal Transition (PAHS-090D, QIAGEN) RT^2 Profiler™ PCR Arrays following the manufacturer's protocol. RT^2 Profiler™ PCR arrays were run on a Bio-Rad CFX96 machine (Bio-Rad). Duplicate arrays were run per condition for control and FRS2 knockdown human umbilical arterial endothelial cells (HUAEC). Data analysis was performed using the manufacturer's integrated web-based software package for the PCR Array System using cycle threshold (Ct)-based fold-change calculations.
Recombinant human FGF2 (R&D) and TGFβ1 (Peprotech) were reconstituted in 0.1% BSA/PBS. U0126 (Sigma), a MEK inhibitor, was reconstituted in DMSO and used at a final concentration of 10 μM. SB431542 (Sigma), a TGFBR1 kinase inhibitor, was reconstituted in DMSO and used at a final concentration of 10 μM in cell culture. Actinomycin D (Sigma), a DNA transcription suppressor, was reconstituted in acetone and used at a final concentration of 10 μg/ml in cell culture. […]

TEVG stenosis = experiment: Tissue-engineered vascular graft (TEVG) stenosis model; assay type: in vivo, mice
Source text: Scaffolds were constructed from a nonwoven polyglycolic acid (PGA) mesh (Concordia Fibers) and a co-polymer sealant solution of poly-L-lactide and -ε-caprolactone (P(CL/LA)) as previously described (Roh J D, et al. Biomaterials. 29(10):1454 (2008)). For scaffold seeding studies, bone marrow was collected from the femurs of syngeneic C57BL/6 mice. Following purification of the mononuclear cell component using Histopaque-1086 (Sigma) centrifugation, one million mononuclear cells were manually pipetted onto the scaffold. The seeded scaffold was incubated in RPMI 1640 Medium (Gibco) overnight prior to implantation as previously described (Roh J D, et al. Biomaterials. 29(10):1454 (2008)).
sFGFR1-IIIc adenovirus was previously described (Murakami M, et al. J Clin Invest. 118(10):3355 (2008)) at a dose of 5×10^10 viral particles per mouse 1 week prior to TEVG implantation by tail vein injection. Control mice were given equivalent volumes of sterile PBS. Serum level of sFGFR1-IIIc was measured by a Human IgG Subclass Profile kit (Invitrogen).
Mice treated with TGFβRI kinase inhibitor were treated with SB431542 hydrate (Sigma) in DMSO given by intraperitoneal injection twice a day from post-operative day 0 to post-operative day 14 at a dose of 10 mg/kg. Control mice were treated with equivalent volumes of sterile DMSO.
Explanted grafts were pressure fixed in 10% formalin overnight and then embedded in paraffin or glycolmethacrylate using previously published methods (Roh J D, et al. Proc Natl Acad Sci USA. 107(10):4669 (2010)). Sections were stained with H&E or Gomori Trichrome. Graft luminal diameters were measured using ImageJ software. Stenosis was defined as greater than 50% decrease in luminal diameter. Critical stenosis was defined as 80% narrowing of the luminal diameter. Graft occlusion was defined as 100% narrowing of the luminal diameter. For EM studies scaffolds were cut into 0.5 mm thick cross-sections and imaged on a […] scanning electron microscope (Hillsboro) as previously described (Roh J D, et al. Biomaterials. 29(10):1454 (2008)). TGFβ positive cell area was measured using ImageJ software. Two separate sections of each explant were counterstained with hematoxalin and imaged at 400× magnification. The number of nuclei was then counted in five regions of each section and averaged. LacZ/SMA colocalized cells were quantified in the same manner using double immunofluorescent staining imaged under 60× confocal magnification.

[1] = test system: constitutively active ALK-4, ALK-5, and ALK-7; parameters: dose or concentration left out as unconfirmed; conditions: transfected NIH 3T3 cells; cited from earlier work
[2] = Tie2-CreXRosa26 mice, 10 mg/kg twice daily intraperitoneal for 2 weeks, vs DMSO

NC(=O)c1ccc(-c2nc(-c3ccc4c(c3)OCO4)c(-c3ccccn3)[nH]2)cc1 [SB431542, 4-[4-(1,3-Benzodioxol-5-yl)-5-(2-pyridinyl)-1H-imidazol-2-yl]-benzamide]
SM-calponin expression (HUAEC): significantly decreased
fibronectin expression (HUAEC): significantly decreased
vimentin expression (HUAEC): significantly decreased
TEVG luminal diameter (TEVG stenosis; [2]): significantly increases
graft patency (TEVG stenosis; [2]): significantly increases
LacZ-positive smooth muscle cells in occluded grafts (TEVG stenosis; Tie2 lineage-tracing mice, drug treated): significant reduction
Patency (TEVG stenosis; local drug delivery (drug in microparticles, drug in solvent), 2 weeks, unseeded grafts, mouse model): significantly increases
neotissue creation (TEVG stenosis; local drug delivery, unseeded grafts, mouse model): enabled neotissue creation
neotissue creation (CD31 positive endothelial layer lining SMA positive smooth muscle layer) (TEVG stenosis; systemic treatment, 10 mg/kg twice daily intraperitoneal): proper neotissue creation
Phosphorylation of Smad2 by constitutively active ALK-4, ALK-5, and ALK-7 [1]: completely abolished
